Laboratory results as given in ChEMBL document CHEMBL3797109, “Biochemometrics for Natural Products Research: Comparison of Data Analysis Approaches and Application to Identification of Bioactive Compounds” (2016).
Values after ≈ are worked out from the molar mass of the structure shown.

Experiments:
Staphylococcus aureus [1] = assay: Antimicrobial activity against Staphylococcus aureus SA1199 after 24 hrs by CLSI method; type: functional; settings: SA1199, 24 h
Staphylococcus aureus [2] = assay: Antimicrobial activity against methicillin-resistant Staphylococcus aureus USA300 LAC AH1263 after 24 hrs by CLSI method; type: functional; settings: USA300 LAC AH1263, 24 h

## C[C@@H]1OC(=O)/C=C/[C@@H](O)[C@H](C)OC(=O)C[C@H](C)OC(=O)/C=C/[C@H]1O
Staphylococcus aureus [1]
  MIC: 219 µM (≈ 75 µg/mL)

## COc1cc(O)c2c(=O)oc3cc(O)cc(C)c3c2c1
Staphylococcus aureus [1]
  MIC: 275 µM (≈ 74.9 µg/mL)

## COc1ccc2cc3[n+](cc2c1OC)CCc1cc2c(cc1-3)OCO2 [BERBERINE]
Staphylococcus aureus [1]
  MIC: 446 µM
Staphylococcus aureus [2]
  MIC: 446 µM
